According to patent US20130053392A1, “CARBONIC ANHYDRASE INHIBITORS” (priority 2010, published 2013):
Entries after “also recorded” stand apart in the source; their conditions may differ.

Key:
[1] = prior art compound (Winum et al); cited from earlier work
[2] = system: 94/1 CA IX knock down cells (HT-29); assay: Clonogenic survival after irradiation, 94/1 cells; format: cell-based, human
Protocol: (§1) Cells were incubated with S4 1 h after the start of the anoxic/normoxic exposure, during 23 h. […] After incubation, cells were irradiated on ice (MCN 225 industrial X-ray tube (Philips, Eindhoven, NL) at 225 kV and 10 mA under the respective oxygen concentrations using different doses (Normoxia: 0, 2, 4, 6, and 8 Gy; Anoxia: 0, 4, 8, 12 and 16 Gy). After irradiation, cells were washed, trypsinized and plated for the clonogenic survival assay and incubated under standard culture conditions until colonies were formed (14 days). Colonies were fixed and stained with 4% methylene blue in 70% ethanol. Plating efficiency was determined by counting colonies consisting of >50 cells and correcting for the number of cells seeded.

[3] = system: HT29 colon carcinoma cells; assay: Mouse xenograft model, HT29 colon carcinoma; format: in vivo, mice
FaDU head and neck cells = assay: FaDU spheroid clonogenicity assay with doxorubicin or radiation; format: cell-based; conditions: listed as S4
Protocol: These studies were undertaken using tumour cells grown into 3-D spheroid cultures that have a natural oxygen gradient. Spheroids of FaDU head and neck cells were generated and treated for 24 h with S4 or vehicle alone; doxorubicin alone or in combination with S4; and S4 or vehicle plus 10 Gy radiotherapy given at the end of the 24 h exposure. Spheroids were treated with trypsin to generate single cell suspensions and plated at various dilutions. Clonogenecity was then recorded per spheroid.
Spheroids were generated by the “liquid overlay technique”. […] The coating prevents the cells from forming monolayers and gives rise of spheroid growth.
The spheroids were grown in a CO2-incubator for 5-7 days. Thereafter, the spheroids were collected and grown in a spinner flask for an additional 5-7 days until they reached a diameter of ˜500-750 μm (10%-0.1% O2 gradient in spheroid).
Spheroids were pooled for the following treatments: • 1. Vehicle for 24 hours • 2. […] Doxorubicin (10 μM) for 24 h • 4. Vehicle for 24 hours followed by 10 Gy radiotherapy • 5.
Directly thereafter, spheroids were digested to single cells using trypsin/EDTA and the cells seeded at a range of concentration in culture plates (clonogenicity assay).
After about a week the cells were stained with methylene blue and the number of colonies counted.

[4] = Proliferation/viability assays; format: cell-based; conditions: 33 μM
Protocol: CA IX inhibition, either using a genetic approach (knock down) or pharmacological (S4) results in a sensitization to irradiation. Genetically or pharmacologically, this sensitization occurs to a similar extent. Pharmacological testing was performed at 33 μM, a concentration selected based on no-toxicity under normoxic conditions based on proliferation/viability assays.

[5] = system: EV/2 CA IX expressing cells (HT-29); assay: Clonogenic survival after irradiation, EV/2 cells; format: cell-based, human; conditions: S4 33 μM 23 h
Protocol: as §1

MDA231-EGFP cells = assay: Orthotopic MDA231-EGFP mammary fat pad tumour and lung clonogen (metastasis) model; format: in vivo, mice; conditions: 10 mg/kg, 5 days on, 2 days off
Protocol: 16 mice were implanted with 0.1 ml of a 5×10^7/ml suspension of MDA231-EGFP cells into the mammary fat pad of anaesthetized mice. The cells were prepared in a 1:1 mix of Matrigel: serum-free RMPI.
Mouse condition was monitored daily and tumour volumes recorded at least 3× per week.
Once tumours reached approximately 100 mm^3, they were randomised in to the following treatment groups:
Group 1: 8 mice implanted with MDA231-EGFP cells received vehicle administered in a “5 days on, 2 days” off schedule (ie Mon-Fri dosing each week).
Group 2: 8 mice implanted with MDA231-EGFP cells received CA-IX inhibitor S4 administered at 10 mg/kg dose in a “5 days on, 2 days” off schedule (ie Mon-Fri dosing each week).
Treatment was continued until primary tumours reached a designated endpoint volume of approx 1000 mm^3.
Mouse health and condition was monitored throughout and weights recorded up to 3 times per week.
Before sacrifice Pimonidazole at 0.2 ml of 10 mg/ml solution i/p (2 h before) and 0.1 ml of a 6 mg/ml Hoechst solution (iv) (1 minute before) were administered. Tumour and lungs were rapidly removed for processing.
Clonogens were assessed in lungs using a clonogenic assay. About a quarter of the total lung tissue was taken and weighed. […] Clones were then stained with bromophenol blue and counted, calculating the number per mg of tissue following correction for the dilution.

| Structure (SMILES) | stability in solution [1] | sensitization to irradiation, normoxic exposure ([2]; S4 33 μM 23 h, normoxia) | effect on radiosensitivity of knock down cells ([2]; S4 33 μM pretreatment) | volume of the tumour versus control ([3]; HT29 xenograft, FIG. 3) | reduction of the tumor growth ([3]; highest dosage of CA inhibitor, HT29 xenograft in nude CD1 mice) [%] | clonogenic survival, combination with radiation (FaDU head and neck cells; S4 33 μM 24 h plus 10 Gy radiotherapy) | clonogenic survival, combination with doxorubicin (FaDU head and neck cells; S4 33 μM plus doxorubicin 10 μM, 24 h) | clonogenicity per spheroid, inhibitor alone (FaDU head and neck cells; S4 alone (33 μM), 24 h, FIG. 9) | toxicity under normoxic conditions [4] | sensitization to irradiation, 24 h anoxia ([5]; anoxia, 8, 12 and 16 Gy, FIG. 18) | sensitization to irradiation, normoxic exposure ([5]; normoxia, 0-8 Gy) | number of metastatic MDA-231 clonogens (colonies per gram of lung tissue) versus vehicle (MDA231-EGFP cells; FIG. 5) | tumour volume against time versus vehicle (MDA231-EGFP cells; orthotopic MDA-231 tumours, FIG. 4) |
| --- | --- | --- | --- | --- | --- | --- | --- | --- | --- | --- | --- | --- | --- |
| NS(=O)(=O)Oc1ccc(Cl)cc1 [4-chlorophenyl sulphamate] | relatively unstable in solution | – | – | – | – | – | – | – | – | – | – | – | – |
| Cc1cc(C)cc(NC(=O)Nc2ccc(OS(N)(=O)=O)cc2)c1 [Compound 3p, 4-[(3,5-dimethylphenyl)ureido]phenyl sulfamate] | – | no sensitization to irradiation was demonstrated | had no effect on the radiosensitivity | significant reduction in the volume of the tumour | 30 | reduced colongenic survival compared with either agent alone; also recorded: significant reduction in colony formation per spheroid | reduced colongenic survival compared with either agent alone; also recorded: significant reduction in colony formation per spheroid | little effect on growth of cells isolated from the spheroids; also recorded: little effect on cell growth | no-toxicity | a sensitization to irradiation was observed | no sensitization to irradiation was demonstrated | significantly fewer metastatic clonogens | little or no effect on the growth of the orthotopic MDA-231 tumours |
